In patent US6905706B2, “Medicinal herbal extract carpediol for treating depression” (Swedish Herbal Institute, priority 2002, dated 2005):
Marks after values point to notes of the source that are not given here.

Experiments:
Male Wistar rats = test: Behavioral despair "forced swimming" test; format: in vivo, rat; details: 30 min pretreatment; for Duration of immobility: mean ± SEM
Source text: Behavioral despair was proposed as a model to test for antidepressant activity by Porsolt et al (25-27). […] This behavior reflects a state of despair which can be reduced by several agents which are therapeutically effective in human depression.
Procedure—The procedure described by Porsolt et al. (25-27) was used with minor modifications described by Chatterjee et al. (28-29). Male Wistar rats weighing 170-200 g were used. They were brought to the laboratory at least one day before the experiment and were housed separately in cages with free access to food and water. Naive rats were individually forced to swim inside a vertical glass cylinder (height: 50 cm; diameter: 25 cm, containing 20 cm of water maintained at 25° C.). […] After 2-3 minutes, activity began to subside and to be interspersed with phases of immobility or floating of increasing length. After 5-6 minutes, immobility reached a plateau where the rats remained immobile for approximately 80% of the time. After 15 minutes in the water, the rats were removed and allowed to dry in a heated enclosure (32° C.) before being returned to their home cages. Total immobility time, i.e., the time of complete cessation of swimming with the head floating just above water level, was quantified 48 hours later after re-exposing them to the water for 5 minutes. They were placed in the cylinder 48 hours later and the total duration of immobility was measured during a 5 minute test. […] An animal was judged to be immobile whenever it remained floating passively in the water in a slightly hunched but upright position, its nose just above the surface. Test samples (Hypericum extracts: HP, HPSE, Jarsin 300, HRFC, Crassulaceae special extracts, Carpediol) and standard drugs (amitriptyline and Imipramine) were administered 3 times immediately after pre-exposure, and 24 and one hour prior to testing (re-exposure) as described in Chatterjee et al., Antidepressant activity of Hypericum perforatum and Hyperforin: the neglected possibility. Pharmacopsychiatry. 31 (Suppl 1):7-15 1998), which is incorporated by reference herein in its entirety.
Evaluation—Duration of immobility was measured in controls and animals treated with various doses of a test drug or standard. Antidepressant drugs, but also stimulants like amphetamine and caffeine, reduced duration of immobility. Dose-responses were evaluated.
Two series of experiments were performed with the following test drugs:
Series A: HP, HPSE, HRFC, CRE, Jarsin, amitriptyline.
Series B: CRE-A, CRE-B, CRE-C, CRE-D, ASFC, imipramine.
They were group-housed, four per cage at ambient temperature of 20±2° and 40-50% relative humidity, with a 12 hour dark/12 hour light cycle (lighting on time 8 a.m.). The animals had free access to pellet chow (Comby) and drinking water.
The extracts were administered once daily for 3 consecutive days. Experiments were performed on day 3, 1 hour after the last drug or vehicle application. Amitriptyline was used as the standard antidepressant, and was administered in a single dose of 3 mg/kg (p.o.) with a pretreatment time of 30 min.
They were administered in a volume of 5 ml/kg (p.o.). The extracts were administered once daily for 3 consecutive days. Experiments were performed on day 3, 1 hour after the last drug or vehicle application. Imipramine-HCl diluted with water to concentration of 6 mg/ml, positive control was used as the standard antidepressant. Imipramine was administered in a single dose of 30 mg/kg (p.o.) with a pretreatment time of 30 minutes. All behavioral studies were performed between 1-3 p.m. and recorded by a video camera. The tapes were evaluated afterwards by an observer who was not informed about the type of treatment each animal had received.
Statistics—Statistical analysis of the duration of immobilization time of rats in swimming test was performed by unpaired two tailed Students t-test with significance 95% confidence interval. […]

[1] = simultaneous application; cited from earlier work
[2] = Series A, 3 mg/kg p.o. single dose
[3] = Series B, 30 mg/kg p.o. single dose

SMILES: CN(C)CCC=C1c2ccccc2CCc2ccccc21 [Amitriptyline]
- Percent (duration of immobility vs vehicle) (Male Wistar rats; [2]): 66.3%
- Percent decrease (duration of immobility) (Male Wistar rats; [2]): 43.7%
- Duration of immobility (Male Wistar rats; [2]): 117.8 ± 33.32, n = 8 seconds

SMILES: CN/C(=N/CCSCc1nc[nH]c1C)NC#N [cimetidine]
- Effect on the metabolism of theophylline (in words) [1]: inhibit

SMILES: CC(C)NCC(O)COc1cccc2ccccc12 (centres unmarked) [propranolol]
- Effect on the metabolism of theophylline (in words) [1]: inhibit

SMILES: CN(C)CCCN1c2ccccc2CCc2ccccc21 [Imipramine]
- Percent (duration of immobility vs vehicle) (Male Wistar rats; [3]): 34.9*** Percent
- Percent decrease (duration of immobility) (Male Wistar rats; [3]): 65.1*** Percent
- Duration of immobility (Male Wistar rats; [3]): 76.0 ± 21.1 n = 6 Seconds
